Measured values published in publication PMC10517462, “Small molecule targeting of the p38/Mk2 stress signaling pathways to improve cancer treatment” (BMC Cancer, 2023).

Legend:
NCI-H69 cells = experiment: FACS-based (DRAQ7) viability assay; format: cell-based, human
Method: […] Etoposide, SB203580 and MK2.III were all dissolved in 0.2% of DMSO before use. Cells treated only with the carrier molecule DMSO (0.2%) served as a control.
Viability analysis was performed by staining with the […], stoichiometric DNA stain DRAQ7 (640 or 633 nm excitation and 670 nm emission; Biostatus Limited). After 48-h treatment with DNA damaging agents and/or inhibitors, cells were washed once with RPMI 1640 and resuspended in 1 ml culture media at a concentration of less than 5 × 10^5/ ml. Cells were stained with 20 µM of DRAQ7 and incubated at 37 °C for 10 min before FACS Calibur cytometer analysis. Fluorescent signals were amplified using linear mode. Cell cycle analysis was performed either by staining DRAQ7 or Propidium Iodide (PI). Cells were stained with 20 µM of DRAQ7 and incubated at 37 °C for 10 min before analysis on a FACSCalibur cytometer. Propidium Iodide (PI, excited with 488 nm laser, collected with 585/52 bandpass filter) was used in the large-scale experiments. Samples were then fixed with 70% EtOH following the viability assay and stored at 4 °C overnight before the experiment. After fixation with 70% EtOH (added drop-wise) for 24 h, samples were centrifuged into the pellet and then washed twice with ice-cold PBS. The supernatant was discarded and pellets were resuspended in 100 µl of RNase A (100 µg/ml) and 400 µl of PI ([…] in PBS). Analysis of flow cytometry data was performed using FlowJo software. Untreated, unstained cells were used as a negative control to determine the location of viable cells on the dot plots. Events below a threshold size were interpreted as cellular debris and were removed from the dataset, leaving a whole cell population.

[1] = tested on: SW620 colorectal cancer cell line; experiment: CCK8 cell viability assay, SW620; format: cell-based, human; details: MK2.III 1 µM or etoposide 150 µM alone, 24 h
Method: To assess the effect of MK2.III kinase inhibitor and the etoposide (VP-16) on the viability of different cancer cell lines, cells were seeded in 96-well plates in a concentration of 5000 cells per well. After 12 h, etoposide and 1 μM MK2.III diluted in culture media were added into the wells for 24 h. NCI-H69 cells were exposed to a series of etoposide concentrations from 20 μM to 150 μM. MDA-MB-231, SW 620, and SW 480 cell lines were incubated with 150 μM etoposide. After treatment, 10 μL of the CCK-8 reagent (96992, Sigma) was added to each well for 1 h followed by optical density measurement at 450 nm using hybrid plate reader Synergy H1.

NCI-H69 xenograft = experiment: Tumor (xenograft) suppression with combination chemotherapy in SCID mice; format: in vivo; details: for Tumor Volume (mm^3) median (25th and 75th quartile): VP-16 12 mg/kg
Method: To establish the most suitable xenograft model for the main experiment we used two mouse lines – BALB/c Nude and SCID (both female, 6 weeks, n = 20, Charles River). Both mouse lines were injected with NCI-H69 cancer cells (xenograft). Before injection, cells were grown at 37 °C in RPMI-1640 medium containing 10% FBS and pen/strep. Cells were mixed with Matrigel (1:1) and depending on the group 5 × 10^6 or 10 × 10^6 cells were injected into a mouse subcutaneously along the spine to the level of the left scapula. Mice were divided into 4 groups: (1) 5 × 10^6 NCI-H69 SCID (n = 5); (2) 5 × 10^6 NCI-H69 Nude (n = 5); (3) 10 × 10^6 NCI-H69 SCID (n = 5); and (4) 10 × 10^6 NCI-H69 Nude (n = 5).
The main experiment (injection of the drugs) took place after the tumor growth was established. The tumor growth in mice following the injection of cells was monitored twice a week and upon reaching the volume of ~ 100 mm^3, animals were randomized into 5 groups (12 female SCID mice in each group). The drug treatment was performed as follows: the first group was a control and received a placebo in the form of PBS (tumor volume 95 ± 38 mm^3); the second group received 12 mg/kg of Etoposide (tumor volume 101 ± 51 mm^3); the third group was injected with 4 mg/kg of MK2.III (tumor volume 105 ± 44 mm^3); fourth and fifth groups were injected with 12 mg/kg of Etoposide and 4 mg/kg or 2 mg/kg of MK2.III (tumor volumes 112 ± 57 and 107 ± 49 mm^3 respectively). Drugs were injected intraperitoneally daily. Etoposide was injected 3 days after the randomization into groups and MK2.III was administered for 28 days. Tumor growth/suppression was measured using calipers every 3–4 days for the duration of the 28-day treatment and the tumor volume was calculated as follows:[…],
Antitumor properties of drugs in the test group were determined based on the slowing of the tumor growth or tumor volume compared with the control group receiving PBS. Animal welfare was monitored throughout the study period to ensure that animals in distress were euthanized by carbon dioxide asphyxiation. All the animals were also euthanized by carbon dioxide asphyxiation following the completion of the study.
Descriptive statistics were used to summarize the tumor size and data reported as medians and 25th and 75th quartiles. Wilcoxon sum rank test was used to investigate the effects of the treatments on tumor growth. […] Statistical analyses were performed on the SigmaPlot 11.0 software.

[2] = set-up: method as in PMID 26502061; details: cited from earlier work

O=C1NCCc2[nH]c(-c3ccnc(-c4cnc5ccccc5c4)c3)cc21 [MK2.III]
Viable cells (%) (NCI-H69 cells; Table 1 dose response, agent alone 0.321 µM (lowest dose), 48 h): 87.4%
Viable cells (%) (NCI-H69 cells; Table 1 dose response, agent alone 0.626 µM, 48 h): 90.2%
Viable cells (%) (NCI-H69 cells; Table 1 dose response, agent alone 1.25 µM, 48 h): 87.3%
Viable cells (%) (NCI-H69 cells; Table 1 dose response, agent alone 2.5 µM, 48 h): 88.4%
Viable cells (%) (NCI-H69 cells; Table 1 dose response, agent alone 5.0 µM (highest dose), 48 h): 83.5%
Viable cells (%) (NCI-H69 cells; Table 2, VP-16 0 µM (inhibitor alone: MK2.III 1.0 µM or SB203580 2.5 µM), DMSO control 74.6%): 66.1%
Decrease of viability by single agent [1]: 30%
Difference in tumor size versus control (NCI-H69 xenograft; at any checkpoint, etoposide 12 mg/kg, MK2.III 4 mg/kg, or etoposide + MK2.III 2 mg/kg): no significant difference
Tumor Volume (mm^3) median (25th and 75th quartile) (NCI-H69 xenograft; day 11 upon treatment, MK2.III 4 mg/kg IP daily): 516 (401;703) mm^3
Tumor Volume (mm^3) median (25th and 75th quartile) (NCI-H69 xenograft; day 18 upon treatment, MK2.III 4 mg/kg IP daily): 843 (712;1197) mm^3
Tumor Volume (mm^3) median (25th and 75th quartile) (NCI-H69 xenograft; day -1 upon treatment (baseline), MK2.III 4 mg/kg IP): 106 (72;132) mm^3
Solubility [2]: poor solubility
